# Results: patent US12257243B2, “5-hydroxy-7-oxabicyclo[2.2.1]heptane-2-carboxamide derivatives for inducing chondrogenesis for treating joint damage” (NOVARTIS AG, priority 2018, dated 2025)
# pIC50: −log10 of the molar value.
# Test system: ALP in normal human articular chondrocytes (NHACs)
# Assay: Alkaline Phosphatase (ALP) activity assay (staining and quantitation) in NHACs, prevention of chondrocyte hypertrophy
# Type: cell-based
# Conditions: Chondrocyte, 288 h, human IL-1 beta 10 ng/mL, 12 days; for pIC50: Fast Blue RR staining, high content imaging, read-out: ALP in NHAC IC50; for Emax: value in parentheses, read-out: ALP in NHAC (% Efficacy)
# Method: The compounds of the present invention were evaluated in the Alkaline Phosphatase (ALP) activity assay to determine the ability of the compounds to prevent chondrocyte hypertrophy in normal human articular chondrocytes (NHACs).
# Normal human articular chondrocytes (NHACs) were purchased from PromoCell (Heidelberg, Germany) and grown in Chondrocyte Growth Medium (CGM; Lonza, Walkersville, Md.).
# NHACs were expanded in Chondrocyte Growth Medium (CGM) from Lonza until they reached a 60-80% confluency. To initiate differentiation, 7,500 cells were plated/well with indicated test compound dose in 384-well Cell Carrier Ultra plates (Perkin Elmer) with DMEM (SH30022—HyClone) containing 10% FBS (35-015-CV—Corning), 1% Pen/Strep antibiotics (SV30010—HyClone), and 1% Normocin (50 mg/mL—InvivoGen). Cells with test compounds were incubated at 37° C., 5% CO2 for 5 hours and then added human IL-1 beta (AF-200-1B—Peprotech) to each well at a final concentration of 10 ng/mL and incubated at 37° C., 5% CO2 for 12 days.
# To detect the presence of hypertrophic cells, NHACs were fixed with 4% paraformaldehyde and Hoechst 33342 (Invitrogen) dye for 30 minutes, rinsed in PBS, then stained with Fast Blue RR Salt (F0500—Sigma) with Naphthol AS-MX Phosphate Alkaline Solution, 0.25% (855—Sigma-Aldrich).
# The staining was imaged by fluorescent microscopy, using the 561 nm wavelength, and/or quantified by high content imaging with the Image press Confocal (Molecular Devices, Sunnyvale, Calif.). Data analyses were performed with a customized multiwavelength cell-scoring application.
Structure (SMILES),pIC50,Emax [%]
"COc1ccc(NC(=O)[C@@H]2[C@@H](c3cn(C)nc3C(F)(F)F)[C@H]3O[C@@H]2C[C@@H]3O)cc1C(F)(F)F (racemic) [Example 31, rac-(1R,2R,3S,4R,5S)-5-hydroxy-N-(4-methoxy-3-(trifluoromethyl)phenyl)-3-(1-methyl-3-(trifluoromethyl)-1H-pyrazol-4-yl)-7-oxabicyclo[2.2.1]heptane-2-carboxamide]",5.51,102
"Cn1cc([C@H]2[C@H]3O[C@H](C[C@@H]3O)[C@@H]2C(=O)Nc2cccc(C(F)(F)F)c2)c(C(F)(F)F)n1 (racemic) [Example 32, rac-(1R,2R,3S,4R,5S)-5-hydroxy-3-(1-methyl-3-(trifluoromethyl)-1H-pyrazol-4-yl)-N-(3-(trifluoromethyl)phenyl)-7-oxabicyclo[2.2.1]heptane-2-carboxamide]",5.14,78
"COc1ccc(C(F)(F)F)cc1NC(=O)[C@@H]1[C@@H](c2cn(C)nc2C(F)(F)F)[C@H]2O[C@@H]1C[C@@H]2O (racemic) [Example 33, rac-(1R,2R,3S,4R,5)-5-hydroxy-N-(2-methoxy-5-(trifluoromethyl)phenyl)-3-(1-methyl-3-(trifluoromethyl)-1H-pyrazol-4-yl)-7-oxabicyclo[2.2.1]heptane-2-carboxamide]",5.55,74
"Cn1cc([C@H]2[C@H]3O[C@H](C[C@@H]3O)[C@@H]2C(=O)Nc2cc(Cl)cc(C(F)(F)F)c2)c(C(F)(F)F)n1 (racemic) [Example 34, rac-(1R,2R,3S,4R,5)-N-(3-chloro-5-(trifluoromethyl)phenyl)-5-hydroxy-3-(1-methyl-3-(trifluoromethyl)-1H-pyrazol-4-yl)-7-oxabicyclo[2.2.1]heptane-2-carboxamide]",5.19,101
"Cn1cc([C@H]2[C@H]3O[C@H](C[C@@H]3O)[C@@H]2C(=O)Nc2cc(C(F)(F)F)cc(Cl)n2)c(C(F)(F)F)n1 (racemic) [Example 35, rac-(1R,2R,3S,4R,5S)—N-(6-chloro-4-(trifluoromethyl)pyridin-2-yl)-5-hydroxy-3-(1-methyl-3-(trifluoromethyl)-1H-pyrazol-4-yl)-7-oxabicyclo[2.2.1]heptane-2-carboxamide]",5.01,83
"Cn1cc([C@H]2[C@H]3O[C@H](C[C@@H]3O)[C@@H]2C(=O)Nc2cc(C(F)(F)F)c(Cl)cn2)c(C(F)(F)F)n1 (racemic) [Example 36, rac-(1R,2R,3S,4R,5S)—N-(5-chloro-4-(trifluoromethyl)pyridin-2-yl)-5-hydroxy-3-(1-methyl-3-(trifluoromethyl)-1H-pyrazol-4-yl)-7-oxabicyclo[2.2.1]heptane-2-carboxamide]",5.44,92
"Cn1cc([C@H]2[C@H]3O[C@H](C[C@@H]3O)[C@@H]2C(=O)Nc2ccc(N3CCOCC3)c(C(F)(F)F)c2)c(C(F)(F)F)n1 (racemic) [Example 37, rac-(1R,2R,3S,4R,5S)-5-hydroxy-3-(1-methyl-3-(trifluoromethyl)-1H-pyrazol-4-yl)-N-(4-morpholino-3-(trifluoromethyl)phenyl)-7-oxabicyclo[2.2.1]heptane-2-carboxamide]",< 4.52,45
"Cn1cc([C@H]2[C@H]3O[C@H](C[C@@H]3O)[C@@H]2C(=O)Nc2cc(C(F)(F)F)ccn2)c(C(F)(F)F)n1 (racemic) [Example 38, rac-(1R,2R,3S,4R,5S)-5-hydroxy-3-(1-methyl-3-(trifluoromethyl)-1H-pyrazol-4-yl)-N-(4-(trifluoromethyl)pyridin-2-yl)-7-oxabicyclo[2.2.1]heptane-2-carboxamide]",5.44,94
"CCOc1cc(C(F)(F)F)cc(NC(=O)[C@@H]2[C@@H](c3cn(C)nc3C(F)(F)F)[C@H]3O[C@@H]2C[C@@H]3O)n1 (racemic) [Example 39, rac-(1R,2R,3S,4R,5S)—N-(6-ethoxy-4-(trifluoromethyl)pyridin-2-yl)-5-hydroxy-3-(1-methyl-3-(trifluoromethyl)-1H-pyrazol-4-yl)-7-oxabicyclo[2.2.1]heptane-2-carboxamide]",5.40,64
"Cn1cc([C@H]2[C@H]3O[C@H](C[C@@H]3O)[C@@H]2C(=O)Nc2cc(C(F)(F)F)cc(C3CC3)n2)c(C(F)(F)F)n1 (racemic) [Example 40, rac-(1R,2R,3S,4R,5S)—N-(6-cyclopropyl-4-(trifluoromethyl)pyridin-2-yl)-5-hydroxy-3-(1-methyl-3-(trifluoromethyl)-1H-pyrazol-4-yl)-7-oxabicyclo[2.2.1]heptane-2-carboxamide]",5.00,83
"Cc1cc(C(F)(F)F)cc(NC(=O)[C@@H]2[C@@H](c3cn(C)nc3C(F)(F)F)[C@H]3O[C@@H]2C[C@@H]3O)n1 (racemic) [Example 41, rac-(1R,2R,3S,4R,5S)-5-hydroxy-3-(1-methyl-3-(trifluoromethyl)-1H-pyrazol-4-yl)-N-(6-methyl-4-(trifluoromethyl)pyridin-2-yl)-7-oxabicyclo[2.2.1]heptane-2-carboxamide]",5.20,61
"Cc1c(NC(=O)[C@@H]2[C@@H](c3cn(C)nc3C(F)(F)F)[C@H]3O[C@@H]2C[C@@H]3O)cccc1C(F)(F)F (racemic) [Example 42, rac-(1R,2R,3S,4R,5S)-5-hydroxy-3-(1-methyl-3-(trifluoromethyl)-1H-pyrazol-4-yl)-N-(2-methyl-3-(trifluoromethyl)phenyl)-7-oxabicyclo[2.2.1]heptane-2-carboxamide]",< 4.52,21
Cn1cc([C@H]2[C@H]3O[C@H](C[C@@H]3O)[C@@H]2C(=O)Nc2ccc(F)c(C(F)(F)F)c2)c(C(F)(F)F)n1 (racemic) [Example 43],5.10,59
"CCOc1ccc(NC(=O)[C@@H]2[C@@H](c3cn(C)nc3C(F)(F)F)[C@H]3O[C@@H]2C[C@@H]3O)cc1C(F)(F)F (racemic) [Example 44, rac-(1R,2R,3S,4R,5S)—N-(4-ethoxy-3-(trifluormethyl)phenyl)-5-hydroxy-3-(1-methyl-3-(trifluoromethyl)-1H-pyrazol-4-yl)-7-oxabicyclo[2.2.1]heptane-2-carboxamide]",4.85,89
"Cn1cc([C@H]2[C@H]3O[C@H](C[C@@H]3O)[C@@H]2C(=O)Nc2cc(F)cc(C(F)(F)F)c2)c(C(F)(F)F)n1 (racemic) [Example 45, rac-(1R,2R,3S,4R,5S)—N-(3-fluoro-5-(trifluoromethyl)phenyl)-5-hydroxy-3-(1-methyl-3-(trifluoromethyl)-1H-pyrazol-4-yl)-7-oxabicyclo[2.2.1]heptane-2-carboxamide]",5.15,61
"N#Cc1ccc(NC(=O)[C@@H]2[C@@H](c3cccc(C(F)(F)F)c3)[C@H]3O[C@@H]2C[C@@H]3O)cc1C(F)(F)F (racemic) [Example 46, rac-(1R,2R,3S,4R,5S)—N-(4-cyano-3-trifluoromethyl)phenyl)-5-hydroxy-3-(3-(trifluoromethyl)phenyl)-7-oxabicyclo[2.2.1]heptane-2-carboxamide]",4.85,50
"N#Cc1cc(NC(=O)[C@@H]2[C@@H](c3cccc(C(F)(F)F)c3)[C@H]3O[C@@H]2C[C@@H]3O)cc(C(F)(F)F)c1 (racemic) [Example 47, rac-(1R,2R,3S,4R,5S)—N-(3-cyano-5-(trifluoromethyl)phenyl)-5-hydroxy-3-(3-(trifluoromethyl)phenyl)-7-oxabicyclo[2.2.1]heptane-2-carboxamide]",5.26,87
